# Assay results published in PubChem BioAssay AID1963872 (Molecular Pharmacology Branch, DTP, NCI, 2024).
# pIC50: −log10 of the molar value. “And” between values parts separate entries of the source, which are not always exact repeats. Identical values can stand only once.
# Tested on: KRAS patient-derived spheroids with HUVEC/MSC, viability
# Assay: Anticancer human tumor 519858-162-T-J1-PDC patient-derived colon adenocarcinoma cell line growth inhibition [KRAS2]
# Details: for viability, T/C: stronger effect = lower value
# Summary of the method: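 KRAS-mutant tumor cells were grown as spheroids with HUVEC endothelial cells and human MSCs as stroma. Targeted agents were tested alone and with KRAS pathway inhibitors. Doses started at or near clinical Cmax, or 10 microM, descending half-log.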
# [1] = curve of first compound, second compound 0.1 µM
# [2] = curve of first compound, second compound 0.316 µM
# [3] = curve of first compound, second compound 1 µM
# [4] = curve of first compound, second compound 3.16 µM
# [5] = curve of first compound, second compound 10 µM
# [6] = second compound 0.1 µM, first compound 0.0316 µM
# [7] = second compound 0.1 µM, first compound 0.1 µM
# [8] = second compound 0.1 µM, first compound 0.316 µM
# [9] = second compound 0.1 µM, first compound 1 µM
# [10] = second compound 0.1 µM, first compound 3.16 µM
# [11] = second compound 0.1 µM, first compound 10 µM
# [12] = second compound 0.316 µM, first compound 0.0316 µM
# [13] = second compound 0.316 µM, first compound 0.1 µM
# [14] = second compound 0.316 µM, first compound 0.316 µM
# [15] = second compound 0.316 µM, first compound 1 µM
# [16] = second compound 0.316 µM, first compound 3.16 µM
# [17] = second compound 0.316 µM, first compound 10 µM
# [18] = second compound 1 µM, first compound 0.0316 µM
# [19] = second compound 1 µM, first compound 0.1 µM
# [20] = second compound 1 µM, first compound 0.316 µM
# [21] = second compound 1 µM, first compound 1 µM
# [22] = second compound 1 µM, first compound 3.16 µM
# [23] = second compound 1 µM, first compound 10 µM
# [24] = second compound 3.16 µM, first compound 0.0316 µM
# [25] = second compound 3.16 µM, first compound 0.1 µM
# [26] = second compound 3.16 µM, first compound 0.316 µM
# [27] = second compound 3.16 µM, first compound 1 µM
# [28] = second compound 3.16 µM, first compound 3.16 µM
# [29] = second compound 3.16 µM, first compound 10 µM
# [30] = second compound 10 µM, first compound 0.0316 µM
# [31] = second compound 10 µM, first compound 0.1 µM
# [32] = second compound 10 µM, first compound 0.316 µM
# [33] = second compound 10 µM, first compound 1 µM
# [34] = second compound 10 µM, first compound 3.16 µM
# [35] = second compound 10 µM, first compound 10 µM
# 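Also: compound exposure lasted seven days before readout.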
# 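For viability, T/C in this document: 100% = DMSO vehicle control viability.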
Compound,pIC50 [1],pIC50 [2],pIC50 [3],pIC50 [4],pIC50 [5],"viability, T/C [6] [%]","viability, T/C [7] [%]","viability, T/C [8] [%]","viability, T/C [9] [%]","viability, T/C [10] [%]","viability, T/C [11] [%]","viability, T/C [12] [%]","viability, T/C [13] [%]","viability, T/C [14] [%]","viability, T/C [15] [%]","viability, T/C [16] [%]","viability, T/C [17] [%]","viability, T/C [18] [%]","viability, T/C [19] [%]","viability, T/C [20] [%]",further results
CC1OCC2(CCN(c3cnc(Sc4ccnc(N)c4Cl)c(N)n3)CC2)C1N (stereo not given) + CNCc1ccccc1-c1csc(C(C)Nc2nc(C)nc3cc(OC)c(OC)cc23)c1,< 5.00,< 5.00,< 5.00,7.01,> 7.50,97.1,99.2,85.4,59.3,54,60.4,80.6,92,68,60.8,69.7,58.9,72.9,83.5,77.3,"viability, T/C [21]: 50.3%; viability, T/C [22]: 35.3%; viability, T/C [23]: 66%; viability, T/C [24]: 66.6%; viability, T/C [25]: 53.9%; viability, T/C [26]: 36.1%; viability, T/C [27]: 43.1%; viability, T/C [28]: 42.7%; viability, T/C [29]: 41.2%; viability, T/C [30]: 10.2%; viability, T/C [31]: 34.6%; viability, T/C [32]: 0.2%; viability, T/C [33]: 0.15%; viability, T/C [34]: 6.03%; viability, T/C [35]: 13.6%"
C=CC(=O)N1CCN(c2nc(OCC3CCCN3C)nc3c2CCN(c2cccc4cccc(C)c24)C3)CC1CC#N (stereo not given),–,–,–,–,–,–,–,–,–,–,–,–,–,–,–,–,–,–,–,–,"pIC50 (compound alone, run of 07/12/2021): < 5.50; pIC50 (compound alone, run of 07/19/2021): < 5.50; pIC50 (compound alone, run of 07/26/2021): < 5.50 and 5.66"
Cn1nccc1Nc1nccc(-c2cc3c(s2)C(C)(C)N(CCN2CCOCC2)C3=O)n1,–,–,–,–,–,–,–,–,–,–,–,–,–,–,–,–,–,–,–,–,"viability, T/C (compound 0.0316 µM): 95.4% [middle of 5 runs]; viability, T/C (compound 0.1 µM): 92.5% [middle of 5 runs]; viability, T/C (compound 0.316 µM): 87.5% [middle of 5 runs]; viability, T/C (compound 1 µM): 69.5% [middle of 5 runs]; viability, T/C (compound 10 µM): 31.8% [middle of 5 runs]"
COc1cc2nccc(Oc3ccc(NC(=O)C4(C(=O)Nc5ccc(F)cc5)CC4)cc3)c2cc1OC,–,–,–,–,–,–,–,–,–,–,–,–,–,–,–,–,–,–,–,–,"viability, T/C (compound 0.316 µM): 86.4% [middle of 5 runs]; pIC50 (curve of compound): < 5.00"
Cn1nccc1Nc1nccc(-c2cc3c(s2)C(C)(C)N(CCN2CCOCC2)C3=O)n1 + COc1cc2nc(C)nc(NC(C)c3cc(N)cc(C(F)(F)F)c3)c2cc1OC1CCOC1,5.38,5.66,5.75,6.31,5.90,98.2,73.5,83.4,59.7,67.8,30.3,77.9,89.5,65,70.8,40.6,23.2,82.1,80.7,52.8,"viability, T/C [21]: 72.5%; viability, T/C [22]: 36.3%; viability, T/C [23]: 25.9%; viability, T/C [24]: 60.4%; viability, T/C [25]: 74.3%; viability, T/C [26]: 46.5%; viability, T/C [27]: 46.7%; viability, T/C [28]: 24.4%; viability, T/C [29]: 23%; viability, T/C [30]: 55.7%; viability, T/C [31]: 59.2%; viability, T/C [32]: 59.1%; viability, T/C [33]: 58.8%; viability, T/C [34]: 18.5%; viability, T/C [35]: 14.3%"
